Assay results published in PubChem BioAssay (NCI).
Values joined by “and” are separate entries in the source; they are usually repeats but may differ in a detail not shown here. Identical values can stand only once.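 Where inhibition never reached the appropriate level, the endpoint shown equals the highest concentration tested. Otherwise, values were interpolated linearly from a five-concentration, 48-hour dose response in 96-well plates. The concentration for 50% growth inhibition is given as GI50. TGI is the concentration that stops growth completely.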

How the values were obtained:
Assay in all cases: NCI-60 cell line screen, 48 h
[1] = system: K-562 leukemia
[2] = system: SK-MEL-5 melanoma
[3] = system: A549 NSCLC
[4] = system: SF-268 CNS
[5] = system: TK-10 renal
[6] = system: NCI/ADR-RES ovarian
[7] = system: SK-MEL-28 melanoma
[8] = system: CCRF-CEM leukemia
[9] = system: RPMI-8226 leukemia
[10] = system: HCC-2998 colon

| Compound | GI50 [1] [µM] | TGI [1] [µM] | GI50 [2] [µM] | TGI [2] [µM] | GI50 [3] [µM] | TGI [3] | GI50 [4] [µM] | TGI [4] | GI50 [5] | TGI [5] [µM] | GI50 [6] [µM] | TGI [6] [µM] | GI50 [7] | TGI [7] [µM] | GI50 [8] [µM] | TGI [8] [µM] | GI50 [9] [µM] | TGI [9] [µM] | GI50 [10] [µM] | TGI [10] [µM] |
| --- | --- | --- | --- | --- | --- | --- | --- | --- | --- | --- | --- | --- | --- | --- | --- | --- | --- | --- | --- | --- |
| C/C(=N\Nc1cccc(Cl)n1)c1ccccn1 | 0.574 | > 100 | 1.62 | 4.62 | 0.932 | > 100 µM | 0.673 | 15.2 µM | 0.7 µM | > 100 | 0.441 | 12.8 | 1.65 µM | > 100 | 0.365 | > 25.2 | 0.615 | 8.28 | 0.75 | > 100 |
| COc1cc(/C=C/C(=O)c2ccc(Nc3nc(Nc4ccccc4)nc(Nc4ccc(Cl)cc4)n3)cc2)cc(OC)c1OC | 4.18 | > 32.5 | 4.76 | 30.6 | > 32.5 | > 32.5 µM | 23.8 | > 32.5 µM | 19.1 µM | > 32.5 | 31.5 | > 32.5 | 14.5 µM | > 32.5 | 4.12 | > 32.5 | 2.21 | 20.9 | > 32.5 | > 32.5 |
| O=C1c2cccc3cc([N+](=O)[O-])cc(c23)C(=O)N1O | – | > 100 | – | > 100 | – | > 100 µM | – | > 100 µM | – | 83.6 | – | > 100 | – | > 100 | – | > 100 | – | > 100 | – | 65.2 |
| COc1ccc(C2C3=C(COC3=O)N(CCO)c3cc4c(cc32)OCCO4)cc1OC (configuration not stated) | 1.38 | > 50 | 0.906 | > 50 | 5.11 | > 50 µM | 4.3 | > 50 µM | > 10.2 µM | > 36.3 | 11.4 | > 50 | > 50 µM | > 50 | 2.02 | > 50 | 1.91 | > 12.6 | 1.76 | 8.67 |
| N#CC[C@H](C1CCCC1)n1cc(-c2ncnc3[nH]ccc23)cn1 | 22.2 | > 100 | 17.2 | 49 | 30.1 | > 100 µM | 16.8 | > 77.9 µM | 13.2 µM | > 100 | 19.4 | > 100 | 31.8 µM | > 100 | 29.1 | > 100 | 36 | > 100 | 20.6 | > 91.7 |
| COc1cc2c3c(c1O)C1(C=CC(=O)C=C1)CC3N(C)CC2 (configuration not stated) | – | > 100 | – | 32.6 | – | > 100 µM | – | 34.6 µM | – | 41.7 | – | 11 | – | 26 | – | 13.8 | – | 83.7 | – | 24.8 |
| ClC1=C(Cl)C(Cl)=C(Cl)C1=Cc1ccc(Cl)cc1 | 0.388 | 4.1 | 1.17 | 2.41 | 0.918 | 2.54 µM | 0.419 | 1.1 µM | 0.331 µM | 0.899 | 0.366 | 2.15 | 1.4 µM | 2.8 | 0.33 | 2.47 | 0.422 | 5.32 | 1.14 | 2.54 |
| C[C@@H](Oc1cc(-c2cnn(C3CC4(CCCNC4)C3)c2)cnc1N)c1c(Cl)ccc(F)c1Cl (some centres not stated) | 0.265 | 1.41 | 1.5 | 2.87 | 1.22 | 4.12 µM | 1.81 | 6.02 µM | 2.02 µM | 5.47 | 2.25 | 5.59 | 1.54 µM | 3.03 | 0.936 | 4.77 | 1.9 | 5.05 | 1.51 | 3.14 |
| CC[C@@]1(OC(=O)CN)C(=O)OCc2c1cc1n(c2=O)Cc2cc3c(N)c4c(cc3nc2-1)OCO4 | 0.00254 | 0.508 | 0.000182 | 0.139 | 0.000195 | 0.233 µM and 1.01 µM | < 0.0001 | 0.125 µM and 0.183 µM | 0.0167 µM and 0.104 µM | > 100 | 0.000145 | 0.0193 | 0.0409 µM and 0.119 µM | > 100 | < 0.0001 | 0.551 | 0.00261 | 0.719 | 0.0116 | 0.969 |
| CC[C@H](C)[C@H](NC(=O)C12CC(NC(C)=O)(C1)C2)C(=O)N(C)[C@H](C[C@@H](OC(C)=O)c1nc(C(=O)N[C@@H](Cc2ccccc2)C[C@H](C)C(=O)OC)cs1)C(C)C | 0.101 | > 16.7 | 0.0807 | 2.76 | 0.907 | > 16.7 µM | 0.809 | > 16.7 µM | > 4.97 µM | > 16.7 | > 16.7 | > 16.7 | 1.81 µM | > 16.7 | 0.273 | > 16.7 | 0.0585 | > 3.64 | 0.21 | > 16.7 |
| Cc1c(N2C(=O)/C(=C\c3ccc(N(C)C)cc3)N=C2c2ccccc2)c(=O)n(-c2ccccc2)n1C | 40.9 | > 100 | 36.3 | > 100 | 79.1 | > 100 µM | > 76.9 | > 100 µM | > 100 µM | > 100 | 99.5 | > 100 | > 100 µM | > 100 | – | – | 25.6 | > 92 | > 100 | > 100 |
| Cc1cccnc1CNC1CC(NCc2ncccc2C)CC(NCc2ncccc2C)C1 (configuration not stated) | 2.38 | 5.56 | 1.92 | 3.83 | 2.01 | 4.21 µM | 1.99 | 4.05 µM | 3.49 µM | 11.3 | 19.3 | > 100 | 3.17 µM | 12.4 | 2.18 | 4.71 | 1.91 | 4.3 | – | – |
| Oc1[nH]c2ccc(Cl)cc2c1/C=c1/ccc2c(c1)N=C(c1cc(F)cc(F)c1)N=2 | 3.12 | > 100 | 4.07 | > 100 | – | – | 3.7 | > 100 µM | 7.22 µM | > 100 | 2.32 | 5.87 | 5.06 µM | > 100 | – | – | 3.31 | > 100 | 7.55 | > 100 |
